One molecule from publication PMC5589576, “Targeting the apoptotic Mcl-1-PUMA interface with a dual-acting compound” (Oncotarget, 2017) can be followed below.

The test system of one assay is MCF-7 cells. Briefly: MTT test on suppressing cancer cells, MCF-7. Format: cell-based. The conditions noted are these: Homo sapiens, MCF7, 24h. As to the method: (Nunc). To check the interference effects of candidate membranes. […]
Microplate Spectrophotometer with excitation wavelength (Boster). being 432 nm. The IC50 calculations were performed by Graphpad Prism 5 (Graphpad software, Inc.). Key residues discovery
Tests of candidate compounds on suppressing In the present study, key residues involved in the […]
by using site-directed mutagenesis and FPA competition
Cell lines including A2780, MCF-7 and SMMC- assays in combination. According to the results of pairwise 7721 were cultured to the logarithmic growth phase per-residue free energy decomposition, the residues in 3 ml complete media (RPMI1640 plus 10%FBS), contributing a lot to the binding of PUMA/Comp8 to 4 Mcl-1 were subjected to site-directed mutagenesis. By respectively. After adjusting their concentrations to 5×10 reference to the primers listed in Supplementary Table5, cells/ml with complete media, these cell lines were plated overlapping extension PCR was conducted to realize into 96-well, transparent, flat-bottom plates (150 μl/well), site-directed mutagenesis. After verified by gene each point was prepared in three replicates. The density sequencing, the individually mutated PCR products were of cultured cell lines was evaluated by MTT tests. When cloned into the expressing vector pET-43.1a (+). […]
Background: Tetrazolium dyes change colour on reduction, which living cells bring about.

The next assay deals with T1, Mcl-1WT (Homo sapiens, UniProt Q07820).
T1 construct: implied by Ni2+-NTA purification from pET-43.1a(+)); made in house; host or cells: E. coli BL21
As to the kind of experiment: FPA competition assay, wildtype Mcl-1. Format: binding. The conditions noted are these: FITC-Mcl-BH3 probe.

Assay [1] has as its system HUVECs infected with Ad-PUMA. Briefly: PUMA-induced apoptosis of HUVECs infected with Ad-PUMA (Caspase-Glo 3/7). The format is cell-based. The conditions noted are these: low-dose, less than 12.5 μM, 48h. The method, then: Tests of candidate compounds on blocking Synthesis of compound 8
PUMA-dependent apoptosis To a suspension of rhodanine (7.57 mmol) in dry Construction and validation of recombinant ethanol (10 mL), 4-Biphentlaldehyde (11.3 mmol), N-(2-Adenovirus By taking pHBAd-MCMV-GFP (Hanbio) as hydroxyethyl) piperazine (11.3 mmol), and glacial acetic vector, the construction and purification of Adenoviruses acid (0.75 mmol) were added and the resulting mixture overexpressing PUMA and PUMA-∆BH3 (PUMA was further stirred under reflux for 5-6 h. The reaction was without the BH3 domain) were performed according to completed and then cooled in an ice bath. The precipitated former reports. […]
various multiplicity of infection (MOI, 6 points, from 0 The crystal structure of Comp8 was solved by X-ray to 160) in 96-well, white, flat-bottom plates (Nunc). […] Shake gently and record the luminescence of each well on TECAN Infinite M1000 S.Y.Z., H.C., J.N.L and J.Y.L. conceived the project.
Microplate Spectrophotometer. The data were analyzed J.Y.L. and Z.T. designed the experiment. J.Y.L., Z.T., by Graphpad Prism and suitable MOI of Ad-PUMA for N.Z., X.Y.L. and C.Y.L. performed the experiments and following cell infection can be determined in this process. prepared the manuscript. […]
added to make the final compound concentrations range 2. […] The results were detected by flexible docking. […]

T1 sequence (Q07820 172-327): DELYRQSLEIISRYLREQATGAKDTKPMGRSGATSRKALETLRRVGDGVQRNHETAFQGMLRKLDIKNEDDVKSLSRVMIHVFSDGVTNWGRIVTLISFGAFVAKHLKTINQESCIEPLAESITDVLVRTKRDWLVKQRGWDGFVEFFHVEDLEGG

Consider `O=C1N=C(N2CCN(CCO)CC2)S/C1=C\c1ccc(-c2ccccc2)cc1` [Comp8], for which the IC50 (usually the concentration needed to halve the response being measured) in the assay on MCF-7 cells stood at 44.2 ± 2.3 µM. Also, at Mcl-1WT, the inhibition constant (Ki) – broadly, the equilibrium dissociation constant of an inhibitor or competing ligand from its target – is 0.3 ± 0.04 µM. In addition, in assay [1], the “effect on PUMA-induced apoptosis of HUVECs” value is “inhibitory effect”.
